Among the data in patent publication US6900200B2, “Tricyclic hydroxy carboxamides and derivatives thereof tocolytic oxytocin receptor antagonists” (Wyeth, priority 2001, dated 2005) are inhibition and IC50 values, retold here.

SMILES strings stand for the structures.

T1 sequence (P30518 whole entry): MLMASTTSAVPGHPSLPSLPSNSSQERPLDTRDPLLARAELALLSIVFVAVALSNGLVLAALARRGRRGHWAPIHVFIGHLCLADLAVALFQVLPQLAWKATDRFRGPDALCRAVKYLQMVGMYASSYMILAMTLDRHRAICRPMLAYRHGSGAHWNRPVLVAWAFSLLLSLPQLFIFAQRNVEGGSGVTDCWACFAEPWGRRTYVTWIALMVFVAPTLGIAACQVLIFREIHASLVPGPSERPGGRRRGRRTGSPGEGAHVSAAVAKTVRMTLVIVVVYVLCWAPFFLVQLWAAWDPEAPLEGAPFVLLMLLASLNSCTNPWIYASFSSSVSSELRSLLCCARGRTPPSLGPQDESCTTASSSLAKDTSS

One experiment has as its target T1, human vasopressin V2 receptor subtype (Homo sapiens, UniProt P30518).
T1 construct: host or cells: CHO cells, pZeoSV vector
Put plainly: Vasopressin binding in CHO cell membranes expressing human vasopressin V2 subtype receptors ([3H]arginine vasopressin radioligand binding). The conditions noted are these: @ 100 nM. An excerpt:
Vasopressin Binding in Chinese Hamster Ovary Cell Membranes Expressing Human Vasopressin V2 Subtype Receptors
Chinese Hamster Ovary (CHO) cells stably transfected with the human V2 subtype receptors were obtained from M. Thibonnier, Case Western Reserve University School of Medicine, Cleveland, Ohio.
A. Passaging and Amplification of Cells
CHO cells transfected with the human vasopressin V2 subtype receptors obtained from M. Thibonnier (pZeoSV vector) are allowed to grow to confluency (approx. >90%) in T-150 flasks under sterile conditions, in a cell culture medium ofF-12 Nutrient Mixture (HAM) with L-glutamine (Gibco Cat. #11765-054) containing 15 mM HEPES (Gibco Cat. #15630-080), 1% antibiotic/antimycotic (add 5 mL 100×, Gibco Cat. #15240-062 per 500 mL F-12), 250 μg/mL Zeocin (add 1.25 mL of 100 mg/mL Invitrogen R-250-01 per 500 mL F-1 2) and 10% Fetal Bovine Serum (Qualified, heat inactivated, Gibco Cat. #16140-063). The medium is removed by aspiration and the cells washed with 10 mL of Hank's Balanced Salt solution (Gibco Cat. #14175-095). The salt solution is removed by aspiration and the cells trypsinized with 5 mL of trypsin-EDTA (0.05% trypsin, 0.53 mM EDTA-4Na, Gibco Cat. #25300-070) for 1 min. The trypsin is removed by aspiration and the cells dislodged by tapping. Cell Culture medium (e.g. 30 mL for 1:30 split) is immediately added and mixed well to inactivate trypsin. 1 mL of detached cells is added to new culture flasks containing fresh Cell Culture medium (e.g. into 25 mL per T-150 flask), and mixed gently. The cells are incubated at 37° C. in 5% CO2. The medium is changed at 3 to 4 day interval (or as appropriate). The cells grow to confluency (approx. >75%-95%) within 7-8 days. All steps are done under sterile conditions.
The cells are washed twice gently with Hank's Balanced Salt solution (e.g. use 10 mL per T-150 flask). The excess solution is removed and the cells bathed for 15-30 min. in an enzyme-free Cell Dissociation Buffer (e.g. use 8 mL Hank's Based, Gibco Cat. # 13150-016 per T-150 flask) until cells are loosened. The contents are transferred to centrifuge tubes (50 mL) kept in ice bath. All subsequent steps are done at 4° C. The tubes are centrifuged at 300×g for 15 min (1380 rpm on SORVAL, Model RT6000D, using the rotor for 50 mL tubes). The supernatant is discarded and the cells suspended in homogenizing buffer (10 mM Tris-HCl containing 0.25 M sucrose and 1 mM EDTA, pH 7.4) ensuring that the volume of the buffer is about ten times the volume of the cell pellet. The cells are pooled into a centrifuge tube (50 mL) and homogenized with Polytron at setting 6 for 10 sec. The homogenate is transferred into a Potter-Elvjehm homogenizer and homogenized with 3 strokes. The homogenate is centrifuged at 1500×g for 60 min at 4° C. (3100 rpm using SORVAL, model RT6000D, using the rotor for 50 mL tubes). The pellet is discarded. The supernatant is centrifuged at 100,000×g for 60 min. at 4° C. (Beckman L8-80M ultracentrifuge; spin at 37,500 rpm with rotor type 70 Ti for 50 mL tubes; 38,000 rpm with type 80Ti for 15 mL tubes; or 35,800 rpm with rotor type 45Ti). The supernantant is discarded and the pellet suspended in 3 to 4 mL of Tris buffer (50 mM TRIS—HCl, pH 7.4). The protein content is estimated by the Bradford or Lowry method. The volume of the membrane suspension is adjusted with the membrane buffer (50 mM Tris-HCl containing 0.1% BSA and 0.1 mM PMSF) to give 3.0 mg/mL (or as appropriate) of protein. The membranes are aliquoted and stored at −70. ° C.
C. Radioligand Binding Assay
In wells of a 96-well format microtiter plate, is added 90, 110 or 130 μL (to make up a final volume of 200 μL) of assay buffer containing 50 mM of Tris-HCl (pH 7.4), […], 1 mg % aprotinin, 1 mg % leupeptin, 2 mg % 1,10-phenanthroline, 10 mg % trypsin inhibitor, and 0.1 mM PMSF. The inhibitors are added on the day of the experiment. […]
`COc1ccccc1-c1ccc(C(=O)N2Cc3ccc(C(=O)N(C)C[C@H](O)CO)n3Cc3ccccc32)cc1C` (single isomer, unassigned) [Example 15]: 0.1 µM produced 74% inhibition.
Still for that read-out and setting: the same measure for `COc1ccccc1-c1ccc(C(=O)N2Cc3ccc(C(=O)N(C)C[C@@H](O)CO)n3Cc3ccccc32)cc1C` (single isomer, unassigned) [Example 16]: 51%; for `Cc1cc(C(=O)N2Cc3ccc(C(=O)NC(CO)(CO)CO)n3Cc3ccccc32)ccc1-c1ccccc1C(F)(F)F` [Example 3, 10-[(2-Methyl-2′-trifluoromethyl-[1,1′-biphenyl]-4-yl)carbonyl]-10,11-dihydro-5H-pyrrolo[2,1-c][1,4]benzodiazepine-3-carboxylic acid (2-hydroxy-1,1-bis-hydroxymethyl-ethyl)-amide]: 13%.

Staying with this experiment, now noted: value printed in parentheses.
Take `COc1cc(C(=O)N2Cc3ccc(C(=O)N(C)C[C@@H](O)[C@H](O)[C@H](O)[C@@H](O)CO)n3Cc3ccccc32)ccc1-c1ccccc1C(F)(F)F` (stereo in doubt) [Example 23, 10-{[2-Methoxy-2′-trifluoromethyl-[1,1′-biphenyl]-4-yl]carbonyl}-N-methyl-N-[(2R,3S,4R,5S)-2,3,4,5,6-pentahydroxyhexyl]-10,11-dihydro-5H-pyrrolo[2,1-c][1,4]benzodiazepine-3-carboxamide]: the IC50 (usually the concentration that inhibits the measured activity by half) is 451 nM.
For the molecule `Cc1cc(C(=O)N2Cc3ccc(C(=O)N(CCO)CCO)n3Cc3ccccc32)ccc1-c1ccccc1C(F)(F)F` [Example 1, 10-[(2-Methyl-2′-trifluoromethyl-[1,1′-biphenyl]-4-yl)carbonyl]-10,11-dihydro-5H-pyrrolo[2,1-c][1,4]benzodiazepine-3-carboxylic acid bis-(2-hydroxy-ethyl)-amide], the IC50 was found to be 610 nM.
As to `Cc1cc(C(=O)N2Cc3ccc(C(=O)N(C)C[C@H](O)[C@@H](O)[C@H](O)[C@H](O)CO)n3Cc3ccccc32)ccc1-c1ccccc1C(F)(F)F` [Example 4, 10-[(2-Methyl-2′-trifluoromethyl-[1,1′-biphenyl]-4-yl)carbonyl]-10,11-dihydro-5H-pyrrolo[2,1-c][1,4]benzodiazepine-3-carboxylic acid methyl-((2S,3R,4R,5R)-2,3,4,5,6-pentahydroxy-hexyl)-amide], the IC50 came out at 617 nM.
`Cc1cc(C(=O)N2Cc3ccc(C(=O)N4CCN(C[C@H](O)CO)CC4)n3Cc3ccccc32)ccc1-c1ccccc1C(F)(F)F` [Example 5, (2S)-3-{4-[(10-{[2-Methyl-2′-trifluoromethyl-[1,1′-biphenyl]-4-yl]carbonyl}-10,11-dihydro-5H-pyrrolo[2,1-c][1,4]benzodiazepin-3-yl)carbonyl]piperazin-1-yl}propane-1,2-diol]: the IC50 was found to be 1190 nM.
Take `Cc1cc(C(=O)N2Cc3ccc(C(=O)N4CCN(C[C@@H](O)CO)CC4)n3Cc3ccccc32)ccc1-c1ccccc1C(F)(F)F` [Example 6, (2R)-3-{4-[(10-{[2-Methyl-2′-trifluoromethyl-[1,1′-biphenyl]-4-yl]carbonyl}-10,11-dihydro-5H-pyrrolo[2,1-c][1,4]benzodiazepin-3-yl)carbonyl]piperazin-1-yl}propane-1,2-diol]: the IC50 was found to be 1390 nM.
In the case of `COC[C@H](O)CN1CCN(C(=O)c2ccc3n2Cc2ccccc2N(C(=O)c2ccc(-c4ccccc4C(F)(F)F)c(C)c2)C3)CC1` [Example 8, (2R)-1-Methoxy-3-{4-[(10-{[2-methyl-2′-trifluoromethyl-[1,1′-biphenyl]-4-yl]carbonyl}-10,11-dihydro-5H-pyrrolo[2,1-c][1,4]benzodiazepin-3-yl)carbonyl]piperazin-1-yl}propan-2-ol], the half-maximal inhibitory concentration (IC50) stood at 769 nM.
Take `COC[C@@H](O)CN1CCN(C(=O)c2ccc3n2Cc2ccccc2N(C(=O)c2ccc(-c4ccccc4C(F)(F)F)c(C)c2)C3)CC1` [Example 9, [3-({4-[(2S)-2-Hydroxy-3-methoxypropyl]-1-piperazinyl}carbonyl)-5H-pyrrolo[2,1-c][1,4]benzodiazepin-10(11H)-yl][2-methyl-2′-trifluoromethyl-[1,1′-biphenyl]-4-yl]methanone]: the IC50 amounted to 1230 nM.
